In ChEMBL document CHEMBL1201862, “PubChem BioAssay data set” (2004):
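Protocol summary: plate cells (96-well), add compound at 5 concentrations, incubate 48 h, interpolate endpoints linearly. GI50 is the concentration that inhibits growth by half.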 Calls of active or inactive are those of the source. No stated cut-off is given here; in the data, active = GI50 up to about 1.1 µM and inactive = higher.

How the values were obtained:
Assay in all cases: NCI tumour cell line growth inhibition, 48 h
[1] = tested on: CAKI-1
[2] = tested on: UACC-257
[3] = tested on: OVCAR-5
[4] = tested on: SF-268
[5] = tested on: PC-3
[6] = tested on: 786-0
[7] = tested on: EKVX
[8] = tested on: HCC 2998
[9] = tested on: HT-29
[10] = tested on: HCT-116
[11] = tested on: KM12
[12] = tested on: RXF 393
[13] = tested on: DU-145
[14] = tested on: SNB-19
[15] = tested on: RPMI-8226
[16] = tested on: SW-620
[17] = tested on: Hs-578T
[18] = tested on: SF-539
[19] = tested on: OVCAR-3
[20] = tested on: SR

SMILES	GI50 [1]	GI50 [2]	GI50 [3]	GI50 [4]	GI50 [5]	GI50 [6]	GI50 [7]	GI50 [8]	GI50 [9]	GI50 [10]	GI50 [11]	GI50 [12]	GI50 [13]	GI50 [14]	GI50 [15]	GI50 [16]	GI50 [17]	GI50 [18]	GI50 [19]	GI50 [20]
COC(=O)c1c(C#N)c(N)nc2c1CCC2	> 100 µM (inactive)	> 100 µM (inactive)	> 100 µM (inactive)	> 100 µM (inactive)	> 100 µM (inactive)	> 100 µM (inactive)	> 100 µM (inactive)	> 100 µM (inactive)	> 100 µM (inactive)	> 100 µM (inactive)	> 100 µM (inactive)	> 100 µM (inactive)	> 100 µM (inactive)	> 100 µM (inactive)	> 100 µM (inactive)	> 100 µM (inactive)	70 µM (inactive)			
CCOC(=O)[C@@]12NN=N[C@@H]1[C@H]1CO[C@H](c3ccccc3)N1C2=O	11 µM (inactive)	6.44 µM (inactive)	14.2 µM (inactive)	11 µM (inactive)	10.1 µM (inactive)	5.97 µM (inactive)	13.9 µM (inactive)	12.9 µM (inactive)	13.5 µM (inactive)	15 µM (inactive)	13.1 µM (inactive)	3.58 µM (inactive)	13.8 µM (inactive)	10.2 µM (inactive)	3.24 µM (inactive)	7.67 µM (inactive)	4.6 µM (inactive)	11.2 µM (inactive)	8.53 µM (inactive)	
CC(=O)NNc1nc(C)c(C(=O)/C=C/C=C/c2ccccc2)s1	> 100 µM (inactive)	66.7 µM (inactive)	> 100 µM (inactive)	> 100 µM (inactive)		62.7 µM (inactive)	24.2 µM (inactive)	> 100 µM (inactive)	> 100 µM (inactive)	57.1 µM (inactive)	29.6 µM (inactive)		54.5 µM (inactive)	> 100 µM (inactive)	76 µM (inactive)	> 100 µM (inactive)	> 100 µM (inactive)	> 100 µM (inactive)	52.2 µM (inactive)	80.9 µM (inactive)
Nc1nc(Cl)c(N)c(NCC2(CO)CC(Cc3ccccc3)C2)n1 (stereo not drawn)	> 100 µM (inactive)	0.127 µM (active)	> 100 µM (inactive)	> 92.9 µM (inactive)	51.3 µM (inactive)	> 91.4 µM (inactive)	3.2 µM (inactive)	> 93.5 µM (inactive)	70.6 µM (inactive)	3.15 µM (inactive)	35.7 µM (inactive)	> 42.6 µM (inactive)	> 100 µM (inactive)	> 66.4 µM (inactive)	2.41 µM (inactive)	> 72.8 µM (inactive)	> 39.8 µM (inactive)	> 100 µM (inactive)	26.3 µM (inactive)	
CC(=O)O[C@H]1CC[C@@H](OC(C)=O)[C@H]2[C@H](O)[C@H](O)[C@@H]1n1c(=O)n(-c3ccccc3)c(=O)n12	> 100 µM (inactive)	> 100 µM (inactive)	> 100 µM (inactive)	> 100 µM (inactive)	> 100 µM (inactive)	> 100 µM (inactive)	> 100 µM (inactive)		> 100 µM (inactive)	> 100 µM (inactive)	> 100 µM (inactive)	> 100 µM (inactive)	> 100 µM (inactive)	> 100 µM (inactive)	> 100 µM (inactive)	> 100 µM (inactive)	> 100 µM (inactive)	> 100 µM (inactive)	> 100 µM (inactive)	
C#C[C@]1(O)CC[C@H]2[C@@H]3CCC4=C/C(=N/CCOC(=O)c5cccc6c(=O)c7ccccc7[nH]c56)CC[C@@H]4[C@H]3CC[C@@]21C	51.3 µM (inactive)	43.2 µM (inactive)	> 100 µM (inactive)	53.6 µM (inactive)	18.4 µM (inactive)	42.4 µM (inactive)	46.3 µM (inactive)		64.3 µM (inactive)	42.9 µM (inactive)	30.6 µM (inactive)	5.62 µM (inactive)	32.4 µM (inactive)	90.2 µM (inactive)		45.2 µM (inactive)	35.2 µM (inactive)		33.5 µM (inactive)	
CCOC(=O)c1c(SCCO)n(-c2ccccc2)c(=S)n(-c2ccccc2)c1=O	> 100 µM (inactive)	> 100 µM (inactive)	> 100 µM (inactive)	> 100 µM (inactive)	> 100 µM (inactive)	> 100 µM (inactive)	> 100 µM (inactive)		> 100 µM (inactive)	> 100 µM (inactive)	> 100 µM (inactive)		> 100 µM (inactive)	> 100 µM (inactive)	> 100 µM (inactive)	> 100 µM (inactive)	> 100 µM (inactive)		> 100 µM (inactive)	> 100 µM (inactive)
CC(=O)OC[C@@]1(C)[C@@H]2[C@@H]3[C@@]4(CO[C@]3(C)C(=O)[C@@]3(OC(C)=O)C[C@H](C)[C@H](OC(C)=O)[C@@H]3[C@H]4OC(C)=O)[C@H](OC(=O)c3ccccc3)C[C@@H]21	> 100 µM (inactive)	> 100 µM (inactive)	> 100 µM (inactive)	> 100 µM (inactive)	45.6 µM (inactive)	> 100 µM (inactive)	63.2 µM (inactive)	> 100 µM (inactive)	89.9 µM (inactive)	67.9 µM (inactive)	> 100 µM (inactive)	> 100 µM (inactive)	> 100 µM (inactive)	> 100 µM (inactive)	19 µM (inactive)	78.5 µM (inactive)	> 100 µM (inactive)	> 100 µM (inactive)	> 100 µM (inactive)	
Nc1sccc1S(=O)(=O)c1ccsc1N	> 100 µM (inactive)	> 100 µM (inactive)	> 100 µM (inactive)	> 100 µM (inactive)	> 100 µM (inactive)	> 100 µM (inactive)	> 100 µM (inactive)	> 100 µM (inactive)	> 100 µM (inactive)	> 100 µM (inactive)	> 100 µM (inactive)		> 100 µM (inactive)	> 100 µM (inactive)	> 100 µM (inactive)	> 100 µM (inactive)	> 100 µM (inactive)	> 100 µM (inactive)	> 100 µM (inactive)	
COc1ccc(C(OCC2OC(n3cnc4c(=O)n(Cc5ccccc5[N+](=O)[O-])nnc43)C(O)C2O)(c2ccccc2)c2ccc(OC)cc2)cc1 (stereo not drawn)	10.7 µM (inactive)	22.2 µM (inactive)	27.8 µM (inactive)	16 µM (inactive)	3.85 µM (inactive)	10.8 µM (inactive)	29.3 µM (inactive)	6.97 µM (inactive)	4.31 µM (inactive)	5.6 µM (inactive)	13.1 µM (inactive)	11.5 µM (inactive)	19.6 µM (inactive)	44.9 µM (inactive)	3.36 µM (inactive)	17.6 µM (inactive)	20.8 µM (inactive)	11.8 µM (inactive)	9.82 µM (inactive)	
CCN(CC)CC(O)C1CCC(c2ccccc2)CC1 (stereo not drawn)	19 µM (inactive)	21 µM (inactive)	23.2 µM (inactive)	31.6 µM (inactive)	43.6 µM (inactive)	15.6 µM (inactive)	0.437 µM (active)	0.627 µM (active)	10.5 µM (inactive)	23.2 µM (inactive)	24 µM (inactive)	17.4 µM (inactive)	61 µM (inactive)	25.8 µM (inactive)	13.5 µM (inactive)	24.8 µM (inactive)	30.5 µM (inactive)	16.7 µM (inactive)	44 µM (inactive)	
CC1(C)CC2=C(SC3C=CC=CC3N2)C(=O)C1C(=O)C(N)=O (stereo not drawn)	> 100 µM (inactive)	> 100 µM (inactive)	> 100 µM (inactive)	> 100 µM (inactive)	65.9 µM (inactive)	> 100 µM (inactive)	> 100 µM (inactive)	> 100 µM (inactive)	> 100 µM (inactive)	> 100 µM (inactive)	> 100 µM (inactive)		> 100 µM (inactive)	> 100 µM (inactive)		> 100 µM (inactive)	> 100 µM (inactive)	> 100 µM (inactive)	> 100 µM (inactive)	
CCCCCCCCCCCCC(O)C(=O)O (stereo not drawn)	> 100 µM (inactive)	> 100 µM (inactive)	> 100 µM (inactive)		> 100 µM (inactive)	> 100 µM (inactive)		> 100 µM (inactive)	> 100 µM (inactive)	> 100 µM (inactive)	> 100 µM (inactive)		> 100 µM (inactive)	> 100 µM (inactive)	> 100 µM (inactive)	> 100 µM (inactive)	> 100 µM (inactive)	> 100 µM (inactive)	> 100 µM (inactive)	
Cc1[nH]c(=O)[nH]c(=S)c1C(=O)NC(C)(CO)CO	> 100 µM (inactive)	> 100 µM (inactive)	> 100 µM (inactive)	> 100 µM (inactive)	> 100 µM (inactive)	> 100 µM (inactive)	> 100 µM (inactive)	> 100 µM (inactive)	> 100 µM (inactive)	> 100 µM (inactive)	> 100 µM (inactive)	> 100 µM (inactive)	> 100 µM (inactive)	> 100 µM (inactive)		> 100 µM (inactive)	> 100 µM (inactive)	> 100 µM (inactive)	> 100 µM (inactive)	
CN1C/C(=C\c2cccs2)C(=O)/C(=C/c2cccs2)C1	31.1 µM (inactive)	30 µM (inactive)	20.6 µM (inactive)	46.7 µM (inactive)	19.2 µM (inactive)	17.7 µM (inactive)	19.1 µM (inactive)	19.5 µM (inactive)	18.7 µM (inactive)	14.2 µM (inactive)	21 µM (inactive)	20.3 µM (inactive)	28.6 µM (inactive)	30.5 µM (inactive)	5.53 µM (inactive)	40.7 µM (inactive)	> 100 µM (inactive)		29.3 µM (inactive)	
